In ChEMBL document CHEMBL1156723, “Structure-activity relationship study on a novel series of cyclopentane-containing macrocyclic inhibitors of the hepatitis C virus NS3/4A protease leading to the discovery of TMC435350” (Bioorg Med Chem Lett, 2008):

test system: not listed separately; test: Metabolic stability in human liver microsomes assessed as intrinsic clearance; format: ADME, Microsome; settings: not given

| microsomal CLint [µL/min/mg] | Compound |
| --- | --- |
| 46 | COc1ccc2c(O[C@@H]3C[C@H]4C(=O)N[C@]5(C(=O)NS(=O)(=O)C6CC6)C[C@H]5/C=C\CCCCN(C)C(=O)[C@@H]4C3)cc(-c3ccccc3)nc2c1 |
| 16 | COc1ccc2c(O[C@@H]3C[C@H]4C(=O)N[C@]5(C(=O)NS(=O)(=O)C6CC6)C[C@H]5/C=C\CCCCN(C)C(=O)[C@@H]4C3)cc(-c3nc(C(C)C)cs3)nc2c1 |
| < 6 | COc1ccc2c(O[C@@H]3C[C@H]4C(=O)N[C@]5(C(=O)NS(=O)(=O)C6CC6)C[C@H]5/C=C\CCCCN(C)C(=O)[C@@H]4C3)cc(-c3nc(C(C)C)cs3)nc2c1C [SIMEPREVIR] |

test system: not listed separately; test: Bile excretion of compound in rat at 1 mg/kg, iv after 1 hr; format: ADME, organism-based; design: dose 1 mg/kg, route intravenous; settings: read-out: Activity

| dose excreted at 1 h [%] | Compound |
| --- | --- |
| 95 | COc1ccc2c(O[C@@H]3C[C@H]4C(=O)N[C@]5(C(=O)NS(=O)(=O)C6CC6)C[C@H]5/C=C\CCCCN(C)C(=O)[C@@H]4C3)cc(-c3ccccc3)nc2c1 |

test system: not listed separately; test: Ratio of drug level in liver to plasma in Sprague-Dawley rat at 2 mg/kg, iv after 6 hrs; format: ADME, organism-based; design: dose 2 mg/kg, route intravenous; settings: not given

| Kp at 6 h | Compound |
| --- | --- |
| 63.5 | COc1ccc2c(O[C@@H]3C[C@H]4C(=O)N[C@]5(C(=O)NS(=O)(=O)C6CC6)C[C@H]5/C=C\CCCCN(C)C(=O)[C@@H]4C3)cc(-c3nc(C(C)C)cs3)nc2c1C [SIMEPREVIR] |

test system: Hepatitis C virus; test: Antiviral activity against HCV in human Huh7 cells assessed as luciferase activity; format: functional, organism-based, Hepacivirus hominis; settings: Huh-7

| Compound | EC50 [nM] |
| --- | --- |
| CCc1c(OC)ccc2c(O[C@@H]3C[C@H]4C(=O)N[C@]5(C(=O)NS(=O)(=O)C6CC6)C[C@H]5/C=C\CCCCN(C)C(=O)[C@@H]4C3)cc(-c3nc(C(C)C)cs3)nc12 | 66 |
| COc1ccc2c(O[C@@H]3C[C@H]4C(=O)N[C@]5(C(=O)NS(=O)(=O)C6CC6)C[C@H]5/C=C\CCCCN(C)C(=O)[C@@H]4C3)cc(-c3nc(C(C)C)cs3)nc2c1C [SIMEPREVIR] | 7.8 |
| COc1ccc2c(O[C@@H]3C[C@H]4C(=O)N[C@]5(C(=O)NS(=O)(=O)C6CC6)C[C@H]5/C=C\CCCCN(C)C(=O)[C@@H]4C3)cc(-c3nc(C(C)C)cs3)nc2c1F | 57 |

The next lines start with the values.

| EC50 [nM] | Compound |
| --- | --- |
| 9 | COc1ccc2c(O[C@@H]3C[C@H]4C(=O)N[C@]5(C(=O)NS(=O)(=O)C6CC6)C[C@H]5/C=C\CCCCN(C)C(=O)[C@@H]4C3)cc(-c3ccccc3)nc2c1 |
| 17 | COc1ccc2c(O[C@@H]3C[C@H]4C(=O)N[C@]5(C(=O)NS(=O)(=O)C6CC6)C[C@H]5/C=C\CCCCN(C)C(=O)[C@@H]4C3)cc(-c3nc(C(C)C)cs3)nc2c1 |

target: not listed separately; test: Inhibition of recombinant full length HCV NS3/4A protease; design: species or system Hepacivirus hominis; settings: not given

| Compound | Ki [nM] |
| --- | --- |
| C=C[C@@H]1C[C@]1(NC(=O)[C@@H]1C[C@@H](Oc2cc(-c3ccccc3)nc3cc(OC)ccc23)C[C@H]1C(=O)N[C@H](C(=O)N[C@H](C(=O)NC)C1CCCCC1)C(C)(C)C)C(=O)O | 22 |
| CCc1c(OC)ccc2c(O[C@@H]3C[C@H]4C(=O)N[C@]5(C(=O)NS(=O)(=O)C6CC6)C[C@H]5/C=C\CCCCN(C)C(=O)[C@@H]4C3)cc(-c3nc(C(C)C)cs3)nc12 | 3.1 |
| COc1ccc2c(O[C@@H]3C[C@H]4C(=O)N[C@]5(C(=O)NS(=O)(=O)C6CC6)C[C@H]5/C=C\CCCCN(C)C(=O)[C@@H]4C3)cc(-c3nc(C(C)C)cs3)nc2c1C [SIMEPREVIR] | 0.36 |
| COc1ccc2c(O[C@@H]3C[C@H]4C(=O)N[C@]5(C(=O)NS(=O)(=O)C6CC6)C[C@H]5/C=C\CCCCN(C)C(=O)[C@@H]4C3)cc(-c3nc(C(C)C)cs3)nc2c1F | 0.55 |

The next lines start with the values.

| Ki [nM] | Compound |
| --- | --- |
| 0.41 | COc1ccc2c(O[C@@H]3C[C@H]4C(=O)N[C@]5(C(=O)NS(=O)(=O)C6CC6)C[C@H]5/C=C\CCCCN(C)C(=O)[C@@H]4C3)cc(-c3ccccc3)nc2c1 |
| 0.84 | COc1ccc2c(O[C@@H]3C[C@H]4C(=O)N[C@]5(C(=O)NS(=O)(=O)C6CC6)C[C@H]5/C=C\CCCCN(C)C(=O)[C@@H]4C3)cc(-c3nc(C(C)C)cs3)nc2c1 |

test system: not listed separately; test: Volume of distribution at steady state in Sprague-Dawley rat at 2 mg/kg, iv; format: ADME, organism-based; design: dose 2 mg/kg, route intravenous; settings: in vivo, read-out: Vdss

| Vd [L/kg] | Compound |
| --- | --- |
| 0.49 | COc1ccc2c(O[C@@H]3C[C@H]4C(=O)N[C@]5(C(=O)NS(=O)(=O)C6CC6)C[C@H]5/C=C\CCCCN(C)C(=O)[C@@H]4C3)cc(-c3nc(C(C)C)cs3)nc2c1C [SIMEPREVIR] |

test system: not listed separately; test: Cmax in Sprague-Dawley rat at 10 mg/kg, po; format: ADME, organism-based; design: dose 10 mg/kg, route oral; settings: in vivo

| Cmax [nM] | Compound |
| --- | --- |
| 730 | COc1ccc2c(O[C@@H]3C[C@H]4C(=O)N[C@]5(C(=O)NS(=O)(=O)C6CC6)C[C@H]5/C=C\CCCCN(C)C(=O)[C@@H]4C3)cc(-c3nc(C(C)C)cs3)nc2c1C [SIMEPREVIR] |

test system: not listed separately; test: Clearance in Sprague-Dawley rat at 2 mg/kg, iv; format: ADME, organism-based; design: dose 2 mg/kg, route intravenous; settings: in vivo

| clearance [mL/min/kg] | Compound |
| --- | --- |
| 8.42 | COc1ccc2c(O[C@@H]3C[C@H]4C(=O)N[C@]5(C(=O)NS(=O)(=O)C6CC6)C[C@H]5/C=C\CCCCN(C)C(=O)[C@@H]4C3)cc(-c3nc(C(C)C)cs3)nc2c1C [SIMEPREVIR] |

test system: not listed separately; test: Oral bioavailability in Sprague-Dawley rat at 10 mg/kg, po; format: ADME, organism-based; settings: in vivo

| bioavailability [%] | Compound |
| --- | --- |
| 11 | COc1ccc2c(O[C@@H]3C[C@H]4C(=O)N[C@]5(C(=O)NS(=O)(=O)C6CC6)C[C@H]5/C=C\CCCCN(C)C(=O)[C@@H]4C3)cc(-c3nc(C(C)C)cs3)nc2c1C [SIMEPREVIR] |

test system: not listed separately; test: Ratio of drug level in liver to plasma in Sprague-Dawley rat at 10 mg/kg, po after 6 hrs; format: ADME, organism-based; design: dose 10 mg/kg, route oral; settings: not given

| Kp at 6 h | Compound |
| --- | --- |
| 32 | COc1ccc2c(O[C@@H]3C[C@H]4C(=O)N[C@]5(C(=O)NS(=O)(=O)C6CC6)C[C@H]5/C=C\CCCCN(C)C(=O)[C@@H]4C3)cc(-c3nc(C(C)C)cs3)nc2c1C [SIMEPREVIR] |

test system: not listed separately; test: Tmax in Sprague-Dawley rat at 10 mg/kg, po; format: ADME, organism-based; design: dose 10 mg/kg, route oral; settings: in vivo

| Tmax [h] | Compound |
| --- | --- |
| 3 | COc1ccc2c(O[C@@H]3C[C@H]4C(=O)N[C@]5(C(=O)NS(=O)(=O)C6CC6)C[C@H]5/C=C\CCCCN(C)C(=O)[C@@H]4C3)cc(-c3nc(C(C)C)cs3)nc2c1C [SIMEPREVIR] |

test system: not listed separately; test: Half life in Sprague-Dawley rat at 10 mg/kg, po; format: ADME, organism-based; design: dose 10 mg/kg, route oral; settings: in vivo

| half-life [h] | Compound |
| --- | --- |
| 2.8 | COc1ccc2c(O[C@@H]3C[C@H]4C(=O)N[C@]5(C(=O)NS(=O)(=O)C6CC6)C[C@H]5/C=C\CCCCN(C)C(=O)[C@@H]4C3)cc(-c3nc(C(C)C)cs3)nc2c1C [SIMEPREVIR] |

test system: not listed separately; test: AUC in Sprague-Dawley rat at 10 mg/kg, po; format: ADME, organism-based; design: dose 10 mg/kg, route oral; settings: plasma

| AUC [µM·h] | Compound |
| --- | --- |
| 2.79 | COc1ccc2c(O[C@@H]3C[C@H]4C(=O)N[C@]5(C(=O)NS(=O)(=O)C6CC6)C[C@H]5/C=C\CCCCN(C)C(=O)[C@@H]4C3)cc(-c3nc(C(C)C)cs3)nc2c1C [SIMEPREVIR] |

test system: not listed separately; test: AUC in Sprague-Dawley rat at 2 mg/kg, iv; format: ADME, organism-based; design: dose 2 mg/kg, route intravenous; settings: plasma

| AUC [µM·h] | Compound |
| --- | --- |
| 5.21 | COc1ccc2c(O[C@@H]3C[C@H]4C(=O)N[C@]5(C(=O)NS(=O)(=O)C6CC6)C[C@H]5/C=C\CCCCN(C)C(=O)[C@@H]4C3)cc(-c3nc(C(C)C)cs3)nc2c1C [SIMEPREVIR] |

test system: Liver microsomes; test: Metabolic stability in rat liver microsomes assessed as intrinsic clearance; format: ADME, Microsome; settings: not given

| clearance [µL/min/mg] | Compound |
| --- | --- |
| 46 | COc1ccc2c(O[C@@H]3C[C@H]4C(=O)N[C@]5(C(=O)NS(=O)(=O)C6CC6)C[C@H]5/C=C\CCCCN(C)C(=O)[C@@H]4C3)cc(-c3ccccc3)nc2c1 |
